{"source": "patent US9447075B2", "about": "“Pyridazine derivatives as EAAT2 activators” (The Brigham and Women's Hospital, Inc., priority 2011, dated 2016)", "key": {"[1]": {"system": "primary dissociated neuron and astrocyte mixed cultures", "assay": "Glutamate-induced excitotoxicity in primary neuron and astrocyte mixed cultures (LDH assay, MAP2 immunostaining)", "format": "cell-based", "details": "for MAP2-positive neurons left compared to the control: 0.1 mM glutamate"}, "EphA5": {"molecular_target": "EphA5 (Homo sapiens, UniProt P54756)", "sequence (P54756 25-1037, species assumed)": "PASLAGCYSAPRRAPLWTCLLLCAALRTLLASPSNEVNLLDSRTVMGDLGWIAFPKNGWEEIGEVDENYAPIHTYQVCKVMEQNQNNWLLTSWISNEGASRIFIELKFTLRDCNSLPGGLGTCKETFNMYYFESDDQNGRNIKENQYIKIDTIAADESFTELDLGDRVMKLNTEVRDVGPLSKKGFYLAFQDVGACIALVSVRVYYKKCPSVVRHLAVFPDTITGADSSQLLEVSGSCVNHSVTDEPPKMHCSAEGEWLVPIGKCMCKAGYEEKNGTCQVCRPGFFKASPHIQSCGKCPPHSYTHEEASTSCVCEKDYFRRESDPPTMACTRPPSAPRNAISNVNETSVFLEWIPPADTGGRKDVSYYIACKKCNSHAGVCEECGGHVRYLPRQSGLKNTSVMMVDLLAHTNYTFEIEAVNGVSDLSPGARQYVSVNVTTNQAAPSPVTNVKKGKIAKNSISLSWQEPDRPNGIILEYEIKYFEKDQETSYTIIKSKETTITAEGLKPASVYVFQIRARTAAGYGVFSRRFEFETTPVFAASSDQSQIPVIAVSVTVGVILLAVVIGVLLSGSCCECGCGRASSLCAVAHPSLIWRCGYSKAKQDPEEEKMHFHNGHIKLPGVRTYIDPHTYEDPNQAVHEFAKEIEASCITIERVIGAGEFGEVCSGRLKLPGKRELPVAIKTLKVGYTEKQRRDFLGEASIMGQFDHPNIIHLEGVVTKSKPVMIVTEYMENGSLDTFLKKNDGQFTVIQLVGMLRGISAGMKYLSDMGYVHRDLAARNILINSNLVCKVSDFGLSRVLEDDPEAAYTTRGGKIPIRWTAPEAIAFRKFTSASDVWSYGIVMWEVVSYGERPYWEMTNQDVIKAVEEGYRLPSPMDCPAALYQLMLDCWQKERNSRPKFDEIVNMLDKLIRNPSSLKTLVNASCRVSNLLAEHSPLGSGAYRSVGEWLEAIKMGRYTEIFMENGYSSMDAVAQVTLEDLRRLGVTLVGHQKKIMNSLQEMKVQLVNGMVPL", "assay": "Protein kinase profiling: EphA5", "format": "biochemical", "details": "read-out: EphA5 inhibited", "description": "(§1) To assess Compound 212320's biological activity and selectivity, we performed an in vitro side effect profiling study. Seventy-one targets were tested at 10 μM in duplicate. These targets include neurotransmitter related receptors (30), steroids (2), ion channels (6), second messenger (1), prostaglandins (3), growth factors/hormones (4), brain/gut peptides (13), enzymes (5) and cytochrome p450 (7). […] Additionally, we performed a protein kinase profiling study. Compound 212320 was tested at 1 and 10 μM against 288 kinases. […] These studies indicate that Compound 212320 has high specificity and low side-effects/toxicity potential."}, "SOD1(G93A) mice": {"system": "SOD1(G93A) mice", "assay": "ALS model (SOD1(G93A) mouse model)", "format": "in vivo", "excerpt": "Guidelines established by the ENMC Group were followed (see Ludolph, A. C., et al. Guidelines for the preclinical in vivo evaluation of pharmacological active drugs for ALS/MND: report on the 142nd ENMC international workshop. Amyotroph Lateral Scler 8, 217-223 (2007))^1, which included the use of gender matched mice (i.e. equal number of males and females in each experimental group), use of littermate matched mice (i.e. the littermate of a therapeutic mouse is used in the control group) and use of mice with the same copy number of the SOD1 transgene. SOD1(G93A) mice received Compound 212320 (shown below, shown also as compound 7-4 in FIG. 1) at 40 mg/kg in 500 μl of 1% DMSO/1% polyethylene glycol 400/0.2% Tween 80/10% hydroxypropyl-β-cyclodextrin/saline starting at 84 days of age (6 times/week, at the same time each day) until death or harvested at 120-days of age for analysis. Western blotting, cresyl violet staining and immunofluorescence staining were performed as previously described in Chang, Y., et al. Messenger RNA oxidation occurs early in disease pathogenesis and promotes motor neuron degeneration in ALS. PLoS One 3, e2849 (2008).\nMotor function was determined by measuring peak force using a digital grip dynamometer outfitted with a hind limb pull bar assembly (Columbus Instruments). Measurements started from 70 days of age (three times a week, on the same day of each week and at the same time of each scheduled day) until the mouse loses all strength. Six repetitions were conducted and the average was determined for each point. The examiners were unaware of the treatment of the mice. Food and water were placed on the cage floor when mice began to show motor deficits. […] This time point was recorded as the time of death for survival in days.\nReferring to FIG. 2, Compound 212320 delayed motor function decline and extended life span in SOD1(G93A) mice. […] Data were analyzed using the dynamic fitting nonlinear regression analysis. […] Data were analyzed using Kaplan-Meier survival analysis. […] Spinal cords from 120-day-old mice were analyzed."}, "CYP1A2": {"molecular_target": "T1, CYP1A2 (Homo sapiens, UniProt P05177)", "T1 sequence (P05177 1-516)": "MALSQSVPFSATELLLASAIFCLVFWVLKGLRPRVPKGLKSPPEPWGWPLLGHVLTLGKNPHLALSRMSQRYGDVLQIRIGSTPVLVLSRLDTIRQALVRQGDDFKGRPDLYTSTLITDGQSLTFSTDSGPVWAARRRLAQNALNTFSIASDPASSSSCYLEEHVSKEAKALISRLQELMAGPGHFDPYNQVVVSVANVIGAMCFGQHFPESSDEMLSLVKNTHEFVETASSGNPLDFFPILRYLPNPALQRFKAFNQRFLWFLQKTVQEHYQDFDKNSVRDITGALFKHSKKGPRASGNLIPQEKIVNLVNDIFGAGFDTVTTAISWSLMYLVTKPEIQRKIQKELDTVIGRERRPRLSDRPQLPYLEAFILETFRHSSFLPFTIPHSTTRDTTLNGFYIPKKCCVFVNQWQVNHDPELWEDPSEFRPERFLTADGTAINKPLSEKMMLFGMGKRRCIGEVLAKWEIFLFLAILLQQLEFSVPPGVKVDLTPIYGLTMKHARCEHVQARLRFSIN", "assay": "In vitro side effect profiling: CYP1A2", "format": "in vitro ADME", "details": "duplicate, read-out: inhibition on cytochrome p450 CYP1A2", "description": "as §1"}, "[2]": {"system": "GFAP, GS, EAAT1, GAPDH, SOD1, actin, YB-1, RNA polymerase II, synaptophysin, EAAT3, EAAT4, PSD95, AKT, PI3K, IkB-α, ERK2", "assay": "Total protein and expression of other proteins (global protein synthesis)", "format": "in vivo, mouse", "excerpt": "Furthermore, the following observations indicate that the effects of Compound 212320 on EAAT2 protein expression were not due to a general increase in protein synthesis. First, the total amount of protein in compound-treated cells and mice was not increased compared with that in vehicle-treated cells and mice. Secondly, we examined the expression of a variety of other proteins in mouse brains: astrocyte-specific proteins including GFAP, glutamine synthetase (GS), and EAAT1 (another astrocytic glutamate transporter subtype), several housekeeping proteins including GAPDH, SOD1, actin, YB-1, RNA polymerase II, several neuronspecific proteins including synaptophysin, EAAT3 (a neuronal glutamate transporter), EAAT4, PSD95, and several signaling proteins including AKT, PI3K, IkB-α and ERK2."}, "[3]": {"assay": "Maximum tolerated dose / tolerability study", "format": "in vivo", "details": "male, C57BL/6, mouse, in vivo, ip; five-day repeat-dose i.p., highest dose tested; read-out: 5-day no observed adverse effect level (NOAEL)", "description": "(§2) We determined maximum tolerated dose (MTD) of Compound 212320 in male C57BL/6 mice. The study was conducted in two phases: (I) a single dose tolerability study tested at the doses of 10, 25, 50, and 75 mg/kg i.p. (3 mice/dose) and (II) a five-day repeat-dose tolerability study tested at the doses of 10, 25, 50, and 100 mg/kg i.p. (5 mice/dose). […] In the repeat-dose study, body weights were determined prior to each dose and prior to termination on day 6. Clinical pathologies including standard hematology, serum chemistry and coagulation parameters were evaluated on samples collected on day 6. All animals from phase II were necropsied, and selected organs were weighed. […] Due to lack of toxicity, the highest dose tested, 100 mg/kg/day, was determined to be the 5-day no observed adverse effect level (NOAEL) for Compound 212320."}, "male C57BL/6 mice": {"system": "male C57BL/6 mice", "assay": "Maximum tolerated dose / tolerability study", "format": "in vivo", "details": "single dose 10-75 mg/kg and five-day repeat dose 10-100 mg/kg i.p.", "description": "as §2"}, "[4]": {"details": "i.p., 40 mg/kg daily from 84 days of age"}}}
{"smiles": "Cc1ccccc1CSc1ccc(-c2ccccn2)nn1", "note": "[Compound 7-4]", "values": [{"measurement": "Neuronal loss and degeneration (MAP2 immunostaining)", "setting": "[1]; FIG. 7D", "result": "significantly prevented"}, {"measurement": "Toxicity in all assays", "setting": "[1]; cell culture assays", "result": "did not cause any detectable toxicity"}, {"measurement": "Glutamate-induced cytotoxicity (LDH assay)", "setting": "[1]; glutamate for 2 hr (FIG. 7C)", "result": "significantly reduced"}, {"measurement": "MAP2-positive neurons left compared to the control", "setting": "[1]; pretreatment at 2 μM", "result": "40.4±6.4", "unit": "%"}, {"measurement": "MAP2-positive neurons left compared to the control", "setting": "[1]; pretreatment at 3 μM", "result": "60.9±7.3", "unit": "%"}, {"measurement": "Protective effects after pretreatment with dihydrokainic acid (DHK), an EAAT2 blocker", "setting": "[1]; with DHK pretreatment", "result": "partially abolished"}, {"measurement": "inhibition at 10 µM", "setting": "EphA5", "result": 44, "unit": "%"}, {"measurement": "EAAT2 protein levels in spinal cord (western blot)", "setting": "SOD1(G93A) mice; 120-day-old mice", "result": "restores"}, {"measurement": "Life span (survival)", "setting": "SOD1(G93A) mice; [4]", "result": "extended"}, {"measurement": "Motor function decline (grip strength)", "setting": "SOD1(G93A) mice; [4]", "result": "delayed"}, {"measurement": "inhibition at 10 µM", "setting": "CYP1A2", "result": 69, "unit": "%"}, {"measurement": "Induction of other proteins in mouse brains", "setting": "[2]; FIG. 8F", "result": "None of the above proteins were induced"}, {"measurement": "Total amount of protein vs vehicle", "setting": "[2]; compound-treated cells and mice", "result": "not increased"}, {"measurement": "NOAEL at 5 day", "setting": "[3]", "result": 100, "unit": "mg/kg/day"}, {"measurement": "Clinical signs of toxicity, clinical pathology, body weight", "setting": "male C57BL/6 mice", "result": "no clinical signs of toxicity"}]}
